Data published in ChEMBL document CHEMBL5154747, “Discovery of new carbonic anhydrase IX inhibitors as anticancer agents by toning the hydrophobic and hydrophilic rims of the active site to encounter the dual-tail approach” (Eur J Med Chem, 2022).

What was measured:
Format in all cases: functional
LOX IMVI = assay: Anticancer activity against human LOX IMVI cells assessed as cell growth inhibition at 10 uM incubated for 48 hrs by SRB assay relative to control; conditions: read-out: GI
RXF 393 [1] = assay: Anticancer activity against human RXF 393 cells assessed as cell growth inhibition incubated for 48 hrs by SRB assay
OVCAR-4 [2] = assay: Anticancer activity against human OVCAR-4 cells assessed as cell growth inhibition incubated for 48 hrs by SRB assay
K562 = assay: Anticancer activity against human K562 cells assessed as cell growth inhibition incubated for 48 hrs by SRB assay
MDA-MB-231 [3] = assay: Anticancer activity against human MDA-MB-231 cells assessed as cell growth inhibition at 10 uM incubated for 48 hrs by SRB assay relative to control; conditions: read-out: GI
SN12C = assay: Anticancer activity against human SN12C cells assessed as cell growth inhibition at 10 uM incubated for 48 hrs by SRB assay relative to control; conditions: read-out: GI
KM12 = assay: Anticancer activity against human KM12 cells assessed as cell growth inhibition incubated for 48 hrs by SRB assay
HCT-15 [4] = assay: Anticancer activity against human HCT-15 cells assessed as cell growth inhibition incubated for 48 hrs by SRB assay
OVCAR-5 = assay: Anticancer activity against human OVCAR-5 cells assessed as cell growth inhibition at 10 uM incubated for 48 hrs by SRB assay relative to control; conditions: read-out: GI
786-0 = assay: Anticancer activity against human 786-0 cells assessed as cell growth inhibition at 10 uM incubated for 48 hrs by SRB assay relative to control; conditions: read-out: GI
HCT-15 [5] = assay: Anticancer activity against human HCT-15 cells assessed as cell growth inhibition at 10 uM incubated for 48 hrs by SRB assay relative to control; conditions: read-out: GI
SR = assay: Anticancer activity against human SR cells assessed as cell growth inhibition at 10 uM incubated for 48 hrs by SRB assay relative to control; conditions: read-out: GI
SNB-19 = assay: Anticancer activity against human SNB-19 cells assessed as cell growth inhibition incubated for 48 hrs by SRB assay
HL-60(TB) = assay: Anticancer activity against human HL-60(TB) cells assessed as cell growth inhibition at 10 uM incubated for 48 hrs by SRB assay relative to control; conditions: read-out: GI
NCI/ADR-RES = assay: Anticancer activity against human NCI/ADR-RES cells assessed as cell growth inhibition at 10 uM incubated for 48 hrs by SRB assay relative to control; conditions: read-out: GI
MOLT-4 [6] = assay: Anticancer activity against human MOLT-4 cells assessed as cell growth inhibition incubated for 48 hrs by SRB assay
NCI-H522 = assay: Anticancer activity against human NCI-H522 cells assessed as cell growth inhibition incubated for 48 hrs by SRB assay
Malme-3M = assay: Anticancer activity against human Malme-3M cells assessed as cell growth inhibition incubated for 48 hrs by SRB assay
SF-268 = assay: Anticancer activity against human SF-268 cells assessed as cell growth inhibition at 10 uM incubated for 48 hrs by SRB assay relative to control; conditions: read-out: GI
SK-MEL-28 = assay: Anticancer activity against human SK-MEL-28 cells assessed as cell growth inhibition at 10 uM incubated for 48 hrs by SRB assay relative to control; conditions: read-out: GI
BT-549 [7] = assay: Anticancer activity against human BT-549 cells assessed as cell growth inhibition at 10 uM incubated for 48 hrs by SRB assay relative to control; conditions: read-out: GI
HCT-116 [8] = assay: Anticancer activity against human HCT-116 cells assessed as cell growth inhibition at 10 uM incubated for 48 hrs by SRB assay relative to control; conditions: read-out: GI
SF-295 = assay: Anticancer activity against human SF-295 cells assessed as cell growth inhibition incubated for 48 hrs by SRB assay
BT-549 [9] = assay: Anticancer activity against human BT-549 cells assessed as cell growth inhibition incubated for 48 hrs by SRB assay
TK-10 = assay: Anticancer activity against human TK-10 cells assessed as cell growth inhibition at 10 uM incubated for 48 hrs by SRB assay relative to control; conditions: read-out: GI
IGROV-1 [10] = assay: Anticancer activity against human IGROV-1 cells assessed as cell growth inhibition incubated for 48 hrs by SRB assay
NCI-H23 = assay: Anticancer activity against human NCI-H23 cells assessed as cell growth inhibition incubated for 48 hrs by SRB assay
ACHN = assay: Anticancer activity against human ACHN cells assessed as cell growth inhibition at 10 uM incubated for 48 hrs by SRB assay relative to control; conditions: read-out: GI
UO-31 = assay: Anticancer activity against human UO-31 cells assessed as cell growth inhibition incubated for 48 hrs by SRB assay
MOLT-4 [11] = assay: Anticancer activity against human MOLT-4 cells assessed as cell growth inhibition at 10 uM incubated for 48 hrs by SRB assay relative to control; conditions: read-out: GI
HT-29 = assay: Anticancer activity against human HT-29 cells assessed as cell growth inhibition incubated for 48 hrs by SRB assay
IGROV-1 [12] = assay: Anticancer activity against human IGROV-1 cells assessed as cell growth inhibition at 10 uM incubated for 48 hrs by SRB assay relative to control; conditions: read-out: GI
SNB-75 = assay: Anticancer activity against human SNB-75 cells assessed as cell growth inhibition at 10 uM incubated for 48 hrs by SRB assay relative to control; conditions: read-out: GI
MDA-MB-231 [13] = assay: Anticancer activity against human MDA-MB-231 cells assessed as cell growth inhibition incubated for 48 hrs by SRB assay
OVCAR-4 [14] = assay: Anticancer activity against human OVCAR-4 cells assessed as cell growth inhibition at 10 uM incubated for 48 hrs by SRB assay relative to control; conditions: read-out: GI
HCT-116 [15] = assay: Anticancer activity against human HCT-116 cells assessed as cell growth inhibition incubated for 48 hrs by SRB assay
RXF 393 [16] = assay: Anticancer activity against human RXF 393 cells assessed as cell growth inhibition at 10 uM incubated for 48 hrs by SRB assay relative to control; conditions: read-out: GI
SF-539 = assay: Anticancer activity against human SF-539 cells assessed as cell growth inhibition incubated for 48 hrs by SRB assay
A549 = assay: Anticancer activity against human A549 cells assessed as cell growth inhibition incubated for 48 hrs by SRB assay
OVCAR-3 = assay: Anticancer activity against human OVCAR-3 cells assessed as cell growth inhibition incubated for 48 hrs by SRB assay
[17] = read-out: LC50 (the source's name)

NS(=O)(=O)c1ccc(Nc2nc(N/N=C/c3ccc(C(F)(F)F)cc3)nc(Nc3ccccc3)n2)cc1
inhibition of growth at 10 µM (LOX IMVI): 90% | GI50 (RXF 393 [1]): 1.82 µM | CC50 (RXF 393 [1]; [17]): 35.5 µM | GI50 (OVCAR-4 [2]): 3.69 µM | LC50 (concentration killing 50% of cells) (OVCAR-4 [2]): > 100 µM | GI50 (K562): 3.51 µM | CC50 (K562; [17]): > 100 µM | inhibition of growth at 10 µM (MDA-MB-231 [3]): 73% | inhibition of growth at 10 µM (SN12C): 57% | GI50 (KM12): 2.38 µM | CC50 (KM12; [17]): 24.8 µM | GI50 (HCT-15 [4]): 2.32 µM | CC50 (HCT-15 [4]; [17]): 52 µM | inhibition of growth at 10 µM (OVCAR-5): 32% | inhibition of growth at 10 µM (786-0): 103% | inhibition of growth at 10 µM (HCT-15 [5]): 68% | inhibition of growth at 10 µM (SR): 92% | GI50 (SNB-19): 3.46 µM | CC50 (SNB-19; [17]): 40.6 µM | inhibition of growth at 10 µM (HL-60(TB)): 51% | inhibition of growth at 10 µM (NCI/ADR-RES): 12% | GI50 (MOLT-4 [6]): 3.06 µM | CC50 (MOLT-4 [6]; [17]): > 100 µM | GI50 (NCI-H522): 2.66 µM | CC50 (NCI-H522; [17]): 87.1 µM | GI50 (Malme-3M): 1.87 µM | CC50 (Malme-3M; [17]): 8.15 µM | inhibition of growth at 10 µM (SF-268): 49% | inhibition of growth at 10 µM (SK-MEL-28): 72% | inhibition of growth at 10 µM (BT-549 [7]): 51% | inhibition of growth at 10 µM (HCT-116 [8]): 90% | GI50 (SF-295): 1.92 µM | CC50 (SF-295; [17]): 8.63 µM | GI50 (BT-549 [9]): 2.79 µM | CC50 (BT-549 [9]; [17]): 37.2 µM | inhibition of growth at 10 µM (TK-10): 35% | GI50 (IGROV-1 [10]): 2.64 µM | CC50 (IGROV-1 [10]; [17]): 53.8 µM | GI50 (NCI-H23): 1.95 µM | CC50 (NCI-H23; [17]): 9.25 µM | inhibition of growth at 10 µM (ACHN): 60% | GI50 (UO-31): 1.88 µM | CC50 (UO-31; [17]): 15.7 µM | inhibition of growth at 10 µM (MOLT-4 [11]): 90% | GI50 (HT-29): 2.44 µM | CC50 (HT-29; [17]): 50.1 µM | inhibition of growth at 10 µM (IGROV-1 [12]): 68% | inhibition of growth at 10 µM (SNB-75): 58% | GI50 (MDA-MB-231 [13]): 2.31 µM | LC50 (concentration killing 50% of cells) (MDA-MB-231 [13]): 33.7 µM | inhibition of growth at 10 µM (OVCAR-4 [14]): 59% | GI50 (HCT-116 [15]): 3.1 µM | LC50 (concentration killing 50% of cells) (HCT-116 [15]): 64 µM | inhibition of growth at 10 µM (RXF 393 [16]): 139% | GI50 (SF-539): 1.86 µM | CC50 (SF-539; [17]): 9.61 µM | GI50 (A549): 3.11 µM | LC50 (A549): 87.2 µM | GI50 (OVCAR-3): 3.32 µM | LC50 (concentration killing 50% of cells) (OVCAR-3): > 100 µM
